# Assay results published in US20240109865A1, “INDAZOLE COMPOUNDS AS KINASE INHIBITORS” (TYRA BIOSCIENCES, INC., priority 2020, published 2024).
# Columns and labels:
# Assay in all cases: Kinase assay, binding constants (Kd), kinase-tagged T7 phage, qPCR
# FGFR3 (V555M) = FGFR3 (V555M) (Homo sapiens (Human), UniProt P22607, V555M); settings: V555M mutant
# In short: (§1)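 Using T7 phage lysates from BL21-derived E. coli, compounds at 0.9% final DMSO competed for kinase binding to ligand-bearing magnetic beads. After elution, qPCR measured remaining kinase, and Kds were fitted by non-linear least squares with the Hill slope fixed at −1.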
# FGFR3 = FGFR3 (Homo sapiens (Human), UniProt P22607)
# In short: as §1
# FGFR2 = FGFR2 (Homo sapiens (Human), UniProt P21802)
# In short: as §1
# FGFR1 = FGFR1 (Homo sapiens (Human), UniProt P11362)
# In short: as §1
# FGFR4 = FGFR4 (Homo sapiens (Human), UniProt P22455)
# In short: as §1
# FGFR4, sequence (P22455 22-802): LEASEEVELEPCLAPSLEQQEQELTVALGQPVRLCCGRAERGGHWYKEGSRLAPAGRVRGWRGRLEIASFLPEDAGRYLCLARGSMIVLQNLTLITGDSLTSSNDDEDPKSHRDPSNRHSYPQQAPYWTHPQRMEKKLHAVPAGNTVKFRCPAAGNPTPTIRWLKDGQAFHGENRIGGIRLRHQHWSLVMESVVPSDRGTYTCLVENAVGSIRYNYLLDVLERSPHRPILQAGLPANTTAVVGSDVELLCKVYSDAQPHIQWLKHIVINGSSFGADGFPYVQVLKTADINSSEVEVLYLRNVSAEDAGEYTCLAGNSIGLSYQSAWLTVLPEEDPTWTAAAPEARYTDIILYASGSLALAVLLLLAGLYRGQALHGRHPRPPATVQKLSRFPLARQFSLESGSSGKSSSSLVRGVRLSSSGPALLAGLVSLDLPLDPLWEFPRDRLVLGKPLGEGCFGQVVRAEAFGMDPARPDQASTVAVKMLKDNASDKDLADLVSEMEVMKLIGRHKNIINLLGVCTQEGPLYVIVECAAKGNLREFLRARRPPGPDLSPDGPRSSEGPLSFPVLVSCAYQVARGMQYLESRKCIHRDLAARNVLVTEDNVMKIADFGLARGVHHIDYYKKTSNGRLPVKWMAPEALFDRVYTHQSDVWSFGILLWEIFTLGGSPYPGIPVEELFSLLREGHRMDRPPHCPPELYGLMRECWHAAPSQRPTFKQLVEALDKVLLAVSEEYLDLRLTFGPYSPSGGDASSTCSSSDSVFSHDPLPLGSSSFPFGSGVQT
# FGFR3, sequence (P22607 23-806): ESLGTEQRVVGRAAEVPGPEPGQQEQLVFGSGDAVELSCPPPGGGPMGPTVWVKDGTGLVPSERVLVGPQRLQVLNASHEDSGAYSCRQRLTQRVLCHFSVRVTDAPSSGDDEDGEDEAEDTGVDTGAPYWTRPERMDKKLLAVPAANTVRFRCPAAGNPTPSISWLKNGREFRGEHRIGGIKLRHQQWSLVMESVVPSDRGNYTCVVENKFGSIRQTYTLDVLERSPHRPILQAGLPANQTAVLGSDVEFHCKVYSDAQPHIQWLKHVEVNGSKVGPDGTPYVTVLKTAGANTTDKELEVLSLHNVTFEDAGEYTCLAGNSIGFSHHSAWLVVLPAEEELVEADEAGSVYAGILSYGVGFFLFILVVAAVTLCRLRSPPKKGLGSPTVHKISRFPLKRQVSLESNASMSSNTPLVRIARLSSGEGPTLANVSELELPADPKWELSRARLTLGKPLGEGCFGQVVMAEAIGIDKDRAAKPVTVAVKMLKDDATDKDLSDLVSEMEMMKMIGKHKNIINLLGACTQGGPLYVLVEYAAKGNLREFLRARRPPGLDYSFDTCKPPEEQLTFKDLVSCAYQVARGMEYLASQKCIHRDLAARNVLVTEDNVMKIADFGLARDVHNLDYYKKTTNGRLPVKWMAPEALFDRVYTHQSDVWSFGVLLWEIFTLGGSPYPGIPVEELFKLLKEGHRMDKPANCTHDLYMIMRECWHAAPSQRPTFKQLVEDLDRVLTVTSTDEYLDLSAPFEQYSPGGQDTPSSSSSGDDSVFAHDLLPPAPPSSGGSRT
# FGFR2, sequence (P21802 22-821): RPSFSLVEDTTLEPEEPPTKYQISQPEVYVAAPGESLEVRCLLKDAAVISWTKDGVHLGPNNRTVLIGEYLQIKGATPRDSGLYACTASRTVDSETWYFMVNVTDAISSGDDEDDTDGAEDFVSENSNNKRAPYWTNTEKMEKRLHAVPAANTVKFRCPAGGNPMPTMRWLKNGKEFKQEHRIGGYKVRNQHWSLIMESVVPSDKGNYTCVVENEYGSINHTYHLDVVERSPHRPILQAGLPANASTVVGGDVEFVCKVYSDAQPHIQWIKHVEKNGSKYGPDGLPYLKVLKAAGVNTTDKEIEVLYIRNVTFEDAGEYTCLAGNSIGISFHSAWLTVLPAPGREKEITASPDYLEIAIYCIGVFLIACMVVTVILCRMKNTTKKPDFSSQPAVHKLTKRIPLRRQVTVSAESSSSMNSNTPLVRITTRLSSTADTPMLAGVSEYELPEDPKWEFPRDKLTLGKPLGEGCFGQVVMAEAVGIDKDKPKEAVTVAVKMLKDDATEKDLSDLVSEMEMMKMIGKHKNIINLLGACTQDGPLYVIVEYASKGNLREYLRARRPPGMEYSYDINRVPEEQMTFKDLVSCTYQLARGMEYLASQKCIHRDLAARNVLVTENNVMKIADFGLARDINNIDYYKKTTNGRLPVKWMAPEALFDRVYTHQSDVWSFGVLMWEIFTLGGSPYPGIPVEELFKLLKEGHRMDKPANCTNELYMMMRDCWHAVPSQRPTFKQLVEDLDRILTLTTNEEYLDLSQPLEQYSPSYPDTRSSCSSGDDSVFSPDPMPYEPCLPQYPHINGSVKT
# FGFR1, sequence (P11362 22-822): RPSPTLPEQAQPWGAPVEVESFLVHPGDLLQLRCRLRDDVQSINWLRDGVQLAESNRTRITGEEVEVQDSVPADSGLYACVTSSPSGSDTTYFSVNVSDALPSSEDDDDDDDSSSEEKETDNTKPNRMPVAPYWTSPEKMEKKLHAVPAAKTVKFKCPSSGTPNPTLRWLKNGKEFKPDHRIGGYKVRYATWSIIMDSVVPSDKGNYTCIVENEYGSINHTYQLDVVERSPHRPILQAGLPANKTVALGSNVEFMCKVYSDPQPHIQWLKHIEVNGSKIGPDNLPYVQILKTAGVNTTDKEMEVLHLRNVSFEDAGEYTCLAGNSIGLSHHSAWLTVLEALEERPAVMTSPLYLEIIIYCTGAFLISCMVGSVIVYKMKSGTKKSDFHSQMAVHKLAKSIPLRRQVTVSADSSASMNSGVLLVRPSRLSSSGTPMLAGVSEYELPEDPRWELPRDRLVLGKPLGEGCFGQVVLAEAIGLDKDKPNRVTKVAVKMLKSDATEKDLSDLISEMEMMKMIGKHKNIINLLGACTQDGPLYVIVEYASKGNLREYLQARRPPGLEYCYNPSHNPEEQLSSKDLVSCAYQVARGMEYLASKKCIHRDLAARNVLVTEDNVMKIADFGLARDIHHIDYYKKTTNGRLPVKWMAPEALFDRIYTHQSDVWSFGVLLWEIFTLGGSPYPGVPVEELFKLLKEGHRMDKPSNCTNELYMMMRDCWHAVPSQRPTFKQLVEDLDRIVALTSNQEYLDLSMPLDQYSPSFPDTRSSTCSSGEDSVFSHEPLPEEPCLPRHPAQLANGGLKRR
# FGFR3 (V555M), sequence (P22607 23-806 V555M): as the sequence (P22607 23-806) above, with V533M counted along it
SMILES,Kd (FGFR3 (V555M)) [nM],Kd (FGFR3) [nM],Kd (FGFR2) [nM],Kd (FGFR1) [nM],Kd (FGFR4) [nM]
"COc1cc2[nH]nc(-c3cnc(N4CC5(C4)CN(S(C)(=O)=O)C5)c(F)c3)c2cc1O[C@H](C)c1c(Cl)cncc1Cl [Example 242, 5-[(1R)-1-(3,5-dichloro-4-pyridyl)ethoxy]-3-[5-fluoro-6-(2-methylsulfonyl-2,6-diazaspiro[3.3]heptan-6-yl)-3-pyridyl]-6-methoxy-1H-indazole]",1 to 20,1 to 20,1 to 20,1 to 20,1 to 20
"COc1cc2[nH]nc(-c3cnc(N4CC5(C4)CN(S(C)(=O)=O)C5)c(F)c3)c2cc1O[C@H](C)c1c(Cl)cnc(C)c1Cl [Example 243, 5-[(1R)-1-(3,5-dichloro-2-methyl-4-pyridyl)ethoxy]-3-[5-fluoro-6-(2-methylsulfonyl-2,6-diazaspiro[3.3]heptan-6-yl)-3-pyridyl]-6-methoxy-1H-indazole]",1 to 20,1 to 20,1 to 20,1 to 20,1 to 20
"Cc1ncc(Cl)c([C@@H](C)Oc2ccc3[nH]nc(-c4cnc(N5CC6(C5)CN(S(C)(=O)=O)C6)c(F)c4)c3c2)c1Cl [Example 244, 5-[(1R)-1-(3,5-dichloro-2-methyl-4-pyridyl)ethoxy]-3-[5-fluoro-6-(2-methylsulfonyl-2,6-diazaspiro[3.3]heptan-6-yl)-3-pyridyl]-1H-indazole]",1 to 20,1 to 20,20 to 100,20 to 100,1 to 20
"C[C@@H](Oc1ccc2[nH]nc(-c3ccc(N4CC5(C4)CN(S(C)(=O)=O)C5)nc3)c2c1)c1c(Cl)cnnc1Cl [Example 246, (R)-5-(1-(3,5-dichloropyridazin-4-yl)ethoxy)-3-(6-(6-(methylsulfonyl)-2,6-diazaspiro[3.3]heptan-2-yl)pyridin-3-yl)-1H-indazole]",1 to 20,1 to 20,1 to 20,1 to 20,1 to 20
"Cc1ncc(Cl)c([C@@H](C)Oc2ccc3[nH]nc(-c4ccc(N5CC6(CCC(O)C6)C5)nc4)c3c2)c1Cl (stereo partly drawn) [Example 247, 2-[5-[5-[(1R)-1-(3,5-dichloro-2-methyl-4-pyridyl)ethoxy]-1H-indazol-3-yl]-2-pyridyl]-2-azaspiro[3.4]octan-6-ol]",1 to 20,1 to 20,20 to 100,20 to 100,1 to 20
"Cc1cc(-c2n[nH]c3ccc(O[C@H](C)c4c(Cl)cncc4Cl)cc23)cnc1N1CC2(C1)CN(S(C)(=O)=O)C2 [Example 248, 5-[(1R)-1-(3,5-dichloro-4-pyridyl)ethoxy]-3-[5-methyl-6-(2-methylsulfonyl-2,6-diazaspiro[3.3]heptan-6-yl)-3-pyridyl]-1H-indazole]",1 to 20,1 to 20,20 to 100,20 to 100,1 to 20
"C[C@@H](Oc1ccc2[nH]nc(-c3ccc(N4CC(C(F)(F)F)C4)nc3)c2c1)c1c(Cl)cncc1Cl [Example 249, (R)-5-(1-(3,5-dichloropyridin-4-yl)ethoxy)-3-(6-(3-(trifluoromethyl)azetidin-1-yl)pyridin-3-yl)-1H-indazole]",1 to 20,1 to 20,20 to 100,20 to 100,1 to 20
"COc1cc2[nH]nc(-c3cnc(N4CC5(C4)CN(S(C)(=O)=O)C5)c(C)c3)c2cc1O[C@H](C)c1c(Cl)cncc1Cl [Example 250, 5-[(1R)-1-(3,5-dichloro-4-pyridyl)ethoxy]-6-methoxy-3-[5-methyl-6-(2-methylsulfonyl-2,6-diazaspiro[3.3]heptan-6-yl)-3-pyridyl]-1H-indazole]",1 to 20,1 to 20,1 to 20,1 to 20,1 to 20
"C[C@@H](Oc1ccc2[nH]nc(-c3ccc(N4CC(C(F)F)C4)nc3)c2c1)c1c(Cl)cncc1Cl [Example 252, (R)-5-(1-(3,5-dichloropyridin-4-yl)ethoxy)-3-(6-(3-(difluoromethyl)azetidin-1-yl)pyridin-3-yl)-1H-indazole]",1 to 20,1 to 20,20 to 100,20 to 100,1 to 20

# Now from value to compound:
Kd (FGFR3 (V555M)) [nM],Kd (FGFR3) [nM],Kd (FGFR2) [nM],Kd (FGFR1) [nM],Kd (FGFR4) [nM],SMILES
1 to 20,1 to 20,1 to 20,1 to 20,1 to 20,"COc1cc2[nH]nc(-c3cnc(N4CC5(C4)CN(S(C)(=O)=O)C5)nc3)c2cc1O[C@H](C)c1c(Cl)cnc(C)c1Cl [Example 240, 5-[(1R)-1-(3,5-dichloro-2-methyl-4-pyridyl)ethoxy]-6-methoxy-3-[2-(2-methylsulfonyl-2,6-diazaspiro[3.3]heptan-6-yl)pyrimidin-5-yl]-1H-indazole]"
1 to 20,1 to 20,20 to 100,1 to 20,1 to 20,"Cc1ncc(Cl)c([C@@H](C)Oc2ccc3[nH]nc(-c4ccc(N5CCC[C@H]5CO)nc4)c3c2)c1Cl [Example 241, [(2S)-1-[5-[5-[(1R)-1-(3,5-dichloro-2-methyl-4-pyridyl)ethoxy]-1H-indazol-3-yl]-2-pyridyl]pyrrolidin-2-yl]methanol]"
1 to 20,1 to 20,1 to 20,1 to 20,1 to 20,"C[C@@H](Oc1ccc2[nH]nc(-c3ccc(N4CC5(CN(C(=O)C(F)(F)F)C5)C4)nc3)c2c1)c1c(Cl)cncc1Cl [Example 245, 1-[6-[5-[5-[(1R)-1-(3,5-dichloro-4-pyridyl)ethoxy]-1H-indazol-3-yl]-2-pyridyl]-2,6-diazaspiro[3.3]heptan-2-yl]-2,2,2-trifluoro-ethanone]"
1 to 20,1 to 20,1 to 20,1 to 20,1 to 20,"Cc1cc2[nH]nc(-c3ccc(N4CC5(C4)CN(S(C)(=O)=O)C5)nc3)c2cc1O[C@H](C)c1c(Cl)cncc1Cl [Example 251, (R)-5-(1-(3,5-dichloropyridin-4-yl)ethoxy)-6-methyl-3-(6-(6-(methylsulfonyl)-2,6-diazaspiro[3.3]heptan-2-yl)pyridin-3-yl)-1H-indazole]"
1 to 20,1 to 20,1 to 20,1 to 20,1 to 20,"C[C@@H](Oc1ccc2[nH]nc(-c3ccc(N4CC(C#N)C4)nc3)c2c1)c1c(Cl)cncc1Cl [Example 253, (R)-1-(5-(5-(1-(3,5-dichloropyridin-4-yl)ethoxy)-1H-indazol-3-yl)pyridin-2-yl)azetidine-3-carbonitrile]"
1 to 20,20 to 100,100 to 300,> 300,> 300,"Cc1cc2[nH]nc(-c3cnc(N4CC5(C4)CN(S(C)(=O)=O)C5)c(F)c3)c2cc1O[C@@H](C)c1c(Cl)cnnc1Cl [Example 254, (S)-5-(1-(3,5-dichloropyridazin-4-yl)ethoxy)-3-(5-fluoro-6-(6-(methylsulfonyl)-2,6-diazaspiro[3.3]heptan-2-yl)pyridin-3-yl)-6-methyl-1H-indazole]"
1 to 20,1 to 20,1 to 20,1 to 20,1 to 20,"C[C@@H](Oc1cc2c(-c3ccc(N4CC5(C4)CN(S(C)(=O)=O)C5)nc3)n[nH]c2cc1F)c1c(Cl)cncc1Cl [Example 255, (R)-5-(1-(3,5-dichloropyridin-4-yl)ethoxy)-6-fluoro-3-(6-(6-(methylsulfonyl)-2,6-diazaspiro[3.3]heptan-2-yl)pyridin-3-yl)-1H-indazole]"
